In the supplement of paper PMC5908809:

Columns and labels:
[1] = tested on: normal primary NK cells, pool 1 (3 donors), resting (IL-2 0 ng/mL); test: drug sensitivity score (DSS) (DSS units); higher = more sensitive; extreme values may be limits of the assay; settings: 72 h
[2] = tested on: NK-YS (IL-2 2.5 ng/mL); test: as above; settings: 72 h
[3] = tested on: normal primary NK cells, pool 2 (3 donors) (IL-2 2.5 ng/mL); test: as above; settings: 72 h
[4] = tested on: SNK-6 (IL-2 2.5 ng/mL); test: as above; settings: 72 h
[5] = tested on: KHYG-1 (IL-2 2.5 ng/mL); test: as above; settings: 72 h
[6] = tested on: NKL (IL-2 2.5 ng/mL); test: as above; settings: 72 h
[7] = tested on: normal primary NK cells, pool 1 (3 donors) (IL-2 2.5 ng/mL); test: as above; settings: 72 h
[8] = tested on: normal primary NK cells, pool 3 (3 donors) (IL-2 2.5 ng/mL); test: as above; settings: 72 h
[9] = tested on: YT (IL-2 2.5 ng/mL); test: as above; settings: 72 h
[10] = tested on: IMC-1 (IL-2 20 ng/mL); test: as above; settings: 72 h
[11] = tested on: NK-92 (IL-2 2.5 ng/mL); test: as above; settings: 72 h
[12] = tested on: KAI3 (IL-2 2.5 ng/mL); test: as above; settings: 72 h
[13] = tested on: DERL-7 (IL-2 2.5 ng/mL); test: as above; settings: 72 h
[14] = tested on: normal NK cells expanded with K562-aAPC; test: as above; settings: 72 h; IL-2 2.5 ng/mL
Procedure: (§1)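 Drug sensitivity and resistance testing on K562-aAPC-expanded normal NK cells: 5 concentrations (10-fold steps over a 10,000-fold range), 72 h at 37 °C, viability by CellTiter-Glo normalised to DMSO and benzethonium chloride controls; DSS from the fitted curve.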

[15] = tested on: normal NK cells expanded with K562-aAPC; test: percent inhibition of viability; higher = more inhibition; settings: 72 h, IL-2 2.5 ng/mL
Procedure: as §1

[16] = tested on: normal primary NK cells, pool 1 (3 donors), resting (IL-2 0 ng/mL); test: as above; settings: 72 h
[17] = tested on: NK-YS (IL-2 2.5 ng/mL); test: as above; settings: 72 h
[18] = tested on: normal primary NK cells, pool 2 (3 donors) (IL-2 2.5 ng/mL); test: as above; settings: 72 h
[19] = tested on: SNK-6 (IL-2 2.5 ng/mL); test: as above; settings: 72 h
[20] = tested on: KHYG-1 (IL-2 2.5 ng/mL); test: as above; settings: 72 h
[21] = tested on: NKL (IL-2 2.5 ng/mL); test: as above; settings: 72 h
[22] = tested on: normal primary NK cells, pool 1 (3 donors) (IL-2 2.5 ng/mL); test: as above; settings: 72 h
[23] = tested on: normal primary NK cells, pool 3 (3 donors) (IL-2 2.5 ng/mL); test: as above; settings: 72 h
[24] = tested on: YT (IL-2 2.5 ng/mL); test: as above; settings: 72 h
[25] = tested on: IMC-1 (IL-2 20 ng/mL); test: as above; settings: 72 h
[26] = tested on: NK-92 (IL-2 2.5 ng/mL); test: as above; settings: 72 h
[27] = tested on: KAI3 (IL-2 2.5 ng/mL); test: as above; settings: 72 h
[28] = tested on: DERL-7 (IL-2 2.5 ng/mL); test: as above; settings: 72 h

CN(C)/N=N/c1[nH]cnc1C(N)=O [Dacarbazine] (max concentration tested 10000 nM)
Settings	drug sensitivity score
[1]	0
[2]	2.15
[3]	0
[4]	10.7
[5]	1.97
[6]	0
[7]	0
[8]	0
[9]	3.43
[10]	0
[11]	0
[12]	0
[13]	0
[14]	0

percent inhibition of viability [%]
Settings	1 nM	10 nM	100 nM	1000 nM	10000 nM
[15]	-6.74	-2.31	-4.77	1.92	10.3
[16]	-7.07	-16.7	-8.98	-35.2	-22.9
[17]	-2.92	-5.5	2.66	4.39	31.8
[18]	-10.3	-8.69	-2.46	-11.8	-2.6
[19]	16.4	16	31.9	30.4	22.6
[20]	-1.18	-4.93	-1.85	0.07	39.6
[21]	-15.6	-10.8	-1.7	0.09	-2.93
[22]	1.02	-5.15	0.2	-11.5	-4.15
[23]	-14.1	-10.7	-2.39	-8.2	3.49
[24]	-0.72	-1.38	3.7	1.57	59.6
[25]	-2.15	-3.53	1.36	1.13	5.24
[26]	-11.1	-14.5	-3.48	-12.7	-1.95
[27]	-5.96	-7.58	-5.99	-9.63	10.8
[28]	-2.46	-7.71	-9.81	-6.85	-5.73

CO[C@@H]1[C@H](N(C)C(=O)c2ccccc2)C[C@H]2O[C@]1(C)n1c3ccccc3c3c4c(c5c6ccccc6n2c5c31)C(=O)NC4 [Midostaurin] (max concentration tested 10000 nM)
Settings	drug sensitivity score
[1]	6.7
[2]	13.5
[3]	14
[4]	22.2
[5]	20.9
[6]	18.5
[7]	18
[8]	12.1
[9]	10.8
[10]	15.6
[11]	15.8
[12]	19.3
[13]	19.5
[14]	19.3

percent inhibition of viability [%]
Settings	1 nM	10 nM	100 nM	1000 nM	10000 nM
[15]	-0.81	-0.07	14.2	93.4	95.7
[16]	-2.01	-12	7.17	29	62.3
[17]	1.77	2.14	11.2	65.2	78.6
[18]	-14.8	-10.1	-0.23	76.7	85.8
[19]	-0.77	8.75	42.7	95.2	97.3
[20]	2.07	-3.07	17	105	99.1
[21]	-4.72	-9.81	28.3	79.7	77.5
[22]	-13	-12.2	25.8	79.6	88.2
[23]	-7.31	-6.65	1.51	63.5	83
[24]	4.08	0.3	9.56	51.4	69.3
[25]	-6.1	-6.16	-11.8	87.9	100
[26]	7.3	4.05	7.33	80.9	89.5
[27]	0.66	3.14	21.1	89.4	91.2
[28]	2.78	1.24	18.5	93.3	98.4
